Measurements as given in patent US20040265915A1, “Method to identify regulators of cellular activation using Bcl10” (priority 2003, published 2004).

Key:
[1] = test system: Bcl10-YFP POLKADOTS formation; test: Bcl10-YFP POLKADOTS formation in PMA-stimulated D10 T cells with cytoskeletal inhibitors; format: cell-based, murine; details: data not shown
Description: (§1) To circumvent the problem that many cytoskeletal inhibitors also impair T cell/APC conjugate formation, D10 T cells were activated with phorbol ester (PMA), a stimulator of PKC. Specifically, in these experiments, D10 T cells infected with retroviruses encoding PKCθ-CFP and Bcl10-YFP received no pre-treatment, 2 hr pretreatment with 10 μg/ml nocodazole, or 1 hr pretreatment with 2 μg/ml latrunculin A. Cells then received either no treatment or were incubated for 20 min with 10 ng/ml PMA.

PKCθ-CFP = target: T1, PKCθ-CFP (Mus musculus, UniProt Q02111); test: PKCθ-CFP translocation in D10 T cells, fluorescence microscopy; format: cell-based, murine
T1 construct: expressed in transfected cells; host or cells: D10 murine CD4+ T cell clone, infected with pEneo retrovirus
Description: (§2) Murine PKCθ was fused to a C-terminal linker (GRVELGR; SEQ ID NO:7) followed by GFP or CFP (19), modified by mutations that improve folding at 37° C. (20). Two I.M.A.G.E. expressed sequence tag (EST) clones encoding murine Bcl10 were purchased (2123397 and 3026026; ResGen). Clone 3026026 was used for PCR amplification of Bc 10, adding the C-terminal linker GR, which was then fused to the previously described modified YFP gene (17). The PKCθ-CFP and Bcl10-YFP gene fusions were cloned into the retroviral vectors pEneo and pEhyg (21), respectively. Retroviral infection and cell line production were as described (17).
as §1
(§3) CH12 B cells that had been pre-incubated with no antigen or with 250 μg/ml conalbumin protein were then added. Cells were fixed after 30 min and examined by fluorescence microscopy. […]

[2] = test system: Bcl10-YFP POLKADOTS formation; test: Bcl10-YFP POLKADOTS formation in antigen-stimulated D10 T cells, fluorescence microscopy; format: cell-based, murine; details: bisindo 2 μM, stauro 100 nM; for Bcl10-YFP POLKADOTS formation: D10 T cells expressing Bcl10-YFP, conalbumin-loaded CH12 B cells (100 μg/ml), 30 min pre-treatment, fixed after 20 min, FIG. 4; for Bcl10 POLKADOTS formation: D10 T cells expressing PKCθ-CFP and Bcl10-YFP, CH12 B cells with 250 μg/ml conalbumin, 30 min pretreatment, fixed after 30 min, FIG. 5
Description: (§4) D10-IL2 (henceforth referred to as D10) is an IL-2 dependent subclone of the CD4^+ T cell clone D10 (16), maintained as described (17). Primary T cell blasts were prepared by stimulation of spleen and lymph node cells with 100 μg/ml plate-bound anti-TCRP for 48 hr, with IL-2 added for the final 24 hr of stimulation. CH12H-2^k B cells and CHb H-2^b B cells (18) were maintained as described previously (17).
as §2
Fluorescent and Nomarski images were acquired on an Olympus IX70 inverted microscope (Olympus America, Inc.) or a Zeiss Axiovert 200M inverted microscope (Carl Zeiss, Inc.) using a 100× plan-apochromat oil objective. The microscope was controlled by a TILLvisTRAC imaging system, driven by TILLvisION 4.0 software (TILL Photonics, GmbH). Excitation light was provided by a Polychrome IV monochromator (TILL Photonics, GmbH). Dichroic mirrors and excitation filters appropriate for each fluorophore were purchased from Chroma.
For fixed cell imaging, T cell conjugates were formed, mounted on coverslips, paraformaldehyde fixed, and stained with fluorophore-conjugated antibodies (Molecular Probes, Inc.) as described previously (16). For each fluorescent wavelength, z-stacks of 50 xy-planes separated by 0.3 μm were acquired, and stacks were digitally deconvolved using a constrained-iterative algorithm. TILLvisION software was used to convert z-stacks into xy projection images, by retaining only the maximal pixel value for each xy coordinate across the z-dimension.
The inventors next examined whether formation of Bcl10 POLKADOTS is PKC-dependent (FIG. 4 and FIG. 5). D10 T cells expressing Bcl10-YFP were incubated with CH12 B cells with no antigen, or with conalbumin-loaded CH12 B cells (100 μg/ml conalbumin). […] Cells were fixed after 20 minutes and examined by fluorescence microscopy. For each group, >200 T cells were counted, and percentages with and without POLKADOTS were determined.
as §3

ERK MAP kinases = test: Activation of ERK MAP kinases in anti-TCR stimulated D10 T cells; format: cell-based, murine; details: anti-TCR stimulation, 30 min pre-treatment with 2 μM
[3] = test system: NF-κB activation (phosphorylation of IκBα); test: NF-κB activation assessed by phosphorylation of IκBα in anti-TCR stimulated D10 T cells; format: cell-based, murine; details: anti-TCR stimulation, 30 min pre-treatment with 2 μM, data not shown
Description: T cells were stimulated with 100 μg/ml plate-bound anti-TCRP. Cell lysates were prepared on ice using 1× Laemmli buffer, followed by sonication. For immunoprecipitations, 5×10^6 cells were lysed for 1 hr on ice in 360 μL of a buffer consisting of 0.5% NP40, 0.5% deoxcholate, 20 mM Tris, pH 7.6, 250 mM NaCl, 3 mM EDTA, 3 mM EGTA, 1 mM PMSF, 20 μg/ml aprotinin, 100 μg/ml leupeptin, 1 mM Na3VO4, 10 mM NaF, and 1 mM DTT. Nuclei were removed by centrifugation, and lysates were incubated with polyclonal rabbit anti-Bcl10 antibody (Santa Cruz Biotechnology) for 2-3 hr at 4° C. and then for 1 hr at 4° C. with Protein A sepharose. Lysates and immunoprecipitates were separated by SDS-PAGE and blotted onto nitrocellulose. Proteins were detected by monoclonal antibodies against Bcl10 (Santa Cruz Biotechnology), and PKCθ (BD/Translabs), and polyclonal antibodies against phospho-IκBα anti-phospho-PKCθ/Thr538 (Cell Signaling Technologies), and actin (Santa Cruz Biotechnology). For phosphatase treatment, immunoprecipitates were incubated for 45 min at 30° C. with 400 U of λ-phosphatase (New England Biolabs), according to the instructions of the manufacturer. […]

[4] = test system: Bcl10-YFP phosphorylation; test: Western blot of TCR-dependent Bcl10-YFP phosphorylation in D10 T cells; format: cell-based, murine; details: anti-TCR stimulation, 30 min pre-treatment with 2 μM, data not shown
Description: T cells were stimulated with 100 μg/ml plate-bound anti-TCRP. Cell lysates were prepared on ice using 1× Laemmli buffer, followed by sonication. For immunoprecipitations, 5×10^6 cells were lysed for 1 hr on ice in 360 μL of a buffer consisting of 0.5% NP40, 0.5% deoxcholate, 20 mM Tris, pH 7.6, 250 mM NaCl, 3 mM EDTA, 3 mM EGTA, 1 mM PMSF, 20 μg/ml aprotinin, 100 μg/ml leupeptin, 1 mM Na3VO4, 10 mM NaF, and 1 mM DTT. Nuclei were removed by centrifugation, and lysates were incubated with polyclonal rabbit anti-Bcl10 antibody (Santa Cruz Biotechnology) for 2-3 hr at 4° C. and then for 1 hr at 4° C. with Protein A sepharose. Lysates and immunoprecipitates were separated by SDS-PAGE and blotted onto nitrocellulose. Proteins were detected by monoclonal antibodies against Bcl10 (Santa Cruz Biotechnology), and PKCθ (BD/Translabs), and polyclonal antibodies against phospho-IκBα anti-phospho-PKCθ/Thr538 (Cell Signaling Technologies), and actin (Santa Cruz Biotechnology). For phosphatase treatment, immunoprecipitates were incubated for 45 min at 30° C. with 400 U of λ-phosphatase (New England Biolabs), according to the instructions of the manufacturer.
The inventors next investigated whether Bcl10 redistribution reflects biochemical modification of Bcl10. […]

Bcl10 = test: Endogenous Bcl10 enrichment at the T cell/APC interface in OTII T cell blasts, immunofluorescence microscopy; format: cell-based, mice; details: 45 min with CHb APC loaded with 10 μg/ml OVA 323-339, FIG. 1B
Description: as §4
For fixed cell imaging, T cell conjugates were formed, mounted on coverslips, paraformaldehyde fixed, and stained with fluorophore-conjugated antibodies (Molecular Probes, Inc.) as described previously (16). […]
The inventors sought to establish whether Bcl10, like PKCθ, might be recruited to the c-SMAC in response to specific antigen-loaded APC. […] T cell/APC conjugates were detected by immunofluorescence microscopy, using monoclonal antibodies directed against Bcl10, PKCθ and CD4 (FIG. 1A). […]
In contrast, in T cells stimulated by specific antigen-loaded CHb APC, PKCθ became enriched at the region of contact between the T cell and the APC. […] The mean maximal anti-Bcl10 fluorescence intensity of the enriched regions of the antigen-stimulated T cells was 7-fold higher than the maximal T cell anti-Bcl10 fluorescence of the no antigen controls (FIG. 1B; error bars representing SEM).

microtubules = test: Microtubule integrity (tubulin distribution) in PMA-stimulated D10 T cells; format: cell-based, murine; details: 2 hr pretreatment with 10 μg/ml nocodazole, then 10 ng/ml PMA 20 min
Description: as §1

T1 sequence (Q02111 whole entry): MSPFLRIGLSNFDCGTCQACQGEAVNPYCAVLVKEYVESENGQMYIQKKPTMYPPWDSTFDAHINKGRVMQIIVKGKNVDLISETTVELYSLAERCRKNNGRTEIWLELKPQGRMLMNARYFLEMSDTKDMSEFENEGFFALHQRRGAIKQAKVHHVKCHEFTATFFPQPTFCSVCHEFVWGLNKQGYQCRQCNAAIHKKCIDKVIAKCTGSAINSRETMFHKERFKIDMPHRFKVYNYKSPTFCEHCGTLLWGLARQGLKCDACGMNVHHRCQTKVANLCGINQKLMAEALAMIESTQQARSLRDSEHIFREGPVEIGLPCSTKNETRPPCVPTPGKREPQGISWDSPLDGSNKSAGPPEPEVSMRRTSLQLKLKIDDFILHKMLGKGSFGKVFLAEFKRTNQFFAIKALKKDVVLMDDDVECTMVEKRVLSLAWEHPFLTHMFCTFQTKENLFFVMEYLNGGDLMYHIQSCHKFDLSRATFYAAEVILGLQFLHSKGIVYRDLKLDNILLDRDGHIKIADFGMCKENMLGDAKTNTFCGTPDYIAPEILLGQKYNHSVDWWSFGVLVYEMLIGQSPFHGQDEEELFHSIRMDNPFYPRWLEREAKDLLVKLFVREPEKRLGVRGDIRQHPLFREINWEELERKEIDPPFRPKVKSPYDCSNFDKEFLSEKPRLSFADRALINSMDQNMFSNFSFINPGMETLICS

CCCCCCCCCCCCCC(=O)O[C@@H]1[C@@H](C)[C@@]2(O)[C@@H](C=C(CO)C[C@]3(O)C(=O)C(C)=C[C@@H]23)[C@@H]2C(C)(C)[C@]12OC(C)=O [PMA]
Bcl10-YFP POLKADOTS on PMA stimulation ([1]; D10 T cells expressing PKCθ-CFP and Bcl10-YFP, 10 ng/ml PMA for 20 min): formation of Bcl10-YFP POLKADOTS
PKCθ-CFP translocation on PMA stimulation (PKCθ-CFP; 10 ng/ml PMA for 20 min, data not shown): translocation of PKCθ-CFP to the cell membrane

CN[C@@H]1C[C@H]2O[C@@](C)([C@@H]1OC)n1c3ccccc3c3c4c(c5c6ccccc6n2c5c31)C(=O)NC4 [stauro, staurosporine]
Bcl10-YFP POLKADOTS formation [2]: blocked
Bcl10 POLKADOTS formation [2]: blocked

bisindolylmaleimide
Bcl10-YFP POLKADOTS formation [2]: blocked
Bcl10 POLKADOTS formation [2]: blocked
activation of the ERK MAP kinases (ERK MAP kinases): partially inhibited
activation of NF-κB (phosphorylation of IκBα) [3]: blocked
formation of phosphorylated Bcl10-YFP [4]: completely blocked
PKCθ translocation in presence of PKC inhibitors (PKCθ-CFP; CH12 B cells with 250 μg/ml conalbumin, 30 min pretreatment, bisindo 2 μM, stauro 100 nM, FIG. 5): occurs

ovalbumin: ovalbumin peptide OVA 323-339 bound to IA^b, antigen for OTII T cells (KISQAVHAAHAEINEAG; UniProt P01012 323-339, looked up, fragment)
mean maximal anti-Bcl10 fluorescence intensity of enriched regions relative to no antigen controls (Bcl10): 7 fold

COC(=O)Nc1nc2ccc(C(=O)c3cccs3)cc2[nH]1 [nocodazole]
microtubules (distribution of tubulin) (microtubules): disrupted

C/C1=C/C(=O)O[C@@H]2C[C@@H](CC[C@H](C)/C=C\C=C\CC1)O[C@@](O)([C@@H]1CSC(=O)N1)C2 [latrunculin A]
levels of Bcl10-YFP POLKADOTS after cytoskeletal inhibitor pretreatment ([1]; 1 hr pretreatment with 2 μg/ml latrunculin A, then 10 ng/ml PMA 20 min): did not appear to have reduced levels
